Like-named read-outs stand apart in the source and are kept apart here.
Legend:
[1] = test system: HepG2; set-up: method as in Albrecht 2019; conditions: In vitro Assay; ref Albrecht 2019; cited from earlier work
[2] = cited from earlier work
[3] = test system: HepG2 cells; conditions: cited from earlier work; for Structural based (HCI): In vitro Assay, ref O'Brien 2006
[4] = test system: HepG2 cells; conditions: cited from earlier work; for Cluser analysis / Structural based (HCI): In vitro Assay, ref Persson 2013
[5] = test system: human hepatocytes; conditions: cited from earlier work; for Structural based (HCI): In vitro Assay, ref Xu 2008
[6] = test system: THLE or HepG2 cells, isolated mitochondria, BSEP; conditions: cited from earlier work; for Ro2 Hybrid HRM Score / Partition Hybrid HRM Score: In vitro Assay, ref Aleo 2019
[7] = test system: PHH; conditions: cited from earlier work
[8] = test system: hLiMTs; conditions: cited from earlier work
[9] = test system: PHH spheroids; conditions: cited from earlier work; for hLiMTs ATP <20 x Cmax: In vitro Assay, ref Vorrink 2018
[10] = test system: HepG2 C3A spheroid, BSEP, Glu/Gal in HepG2 cells, bioactivation; conditions: cited from earlier work
[11] = cited from earlier work; remark: listed apart in the source
[12] = test system: PHH; conditions: In vitro Assay; ref Albrecht 2019; cited from earlier work
[13] = test system: hu-MPCC; conditions: In vitro Assay; ref Khetani 2012; cited from earlier work
[14] = test system: HepG2 cells, primary human hepatocytes; conditions: In vitro Assay; ref Garside 2014; cited from earlier work
[15] = ref Chen 2011; cited from earlier work
[16] = test system: rBsep; conditions: In vitro Assay; ref Dawson 2012; cited from earlier work
[17] = test system: RMPCC's; conditions: In vitro Assay; ref Khetani 2012; cited from earlier work
[18] = test system: hLiMTs; experiment: Combined HCI (HCS) and cellular ATP 3D assay in hLiMTs
[19] = test system: HepaRG spheroids; experiment: Combined HCI (HCS) and cellular ATP 3D assay in HepaRG spheroids
[20] = test system: rBsep; set-up: method as in Dawson 2012; conditions: In vitro Assay; ref Dawson 2012; cited from earlier work
[21] = test system: THLE-Null and THLE-3A4 cells; conditions: In vitro Assay; ref Gustafsson 2014; cited from earlier work
[22] = test system: Upcyte human hepatocytes; conditions: In vitro Assay; ref Tolosa 2019; cited from earlier work
[23] = test system: isolated mouse liver mitochondria; conditions: In vitro Assay; ref Porceddu 2012; cited from earlier work
[24] = Modeled in vitro assays (cytotoxicity, mitochondrial dysfunction, BSEP), ref Aleo et al. 2019
[25] = In vitro Assay, ref Proctor 2017
[26] = Microtissue model structural based (HCI), combined HCS and ATP, MEC < 25 × Cmax.tot cut-off

## O=C1CC2(CCCC2)CC(=O)N1CCCCN1CCN(c2ncccn2)CC1 [buspirone, reference compound]
[1]
  Cytotoxicity HepG2 48 hrs: -VE
[2]; LTKB DILIrank category, ref Chen et al. 2016
  DILI severity category (Chen et al. [2016]): Ambiguous
[2]; human DILI classification, LTKB DILIrank, ref Chen et al. 2016
  DILI severity category (Chen 2016): Ambiguous
[2]; human DILI severity, ref Chen et al.
  DILI severity category: Ambiguous
[2]; ref Chen 2016
  DILI +VE (5-8), DILI -VE (-4): -VE
  DILI severity category: Ambiguous DILI-concern
[3]
  Structural based (HCI): -VE
[3]; Structural based (HCI), HepG2, ref O'Brien et al. 2006
  DILI in vitro assay prediction, O'Brien (2006): -VE
[4]
  Cluser analysis: -VE
  Structural based (HCI): -VE
[4]; Structural based (HCI), HepG2, ref Persson et al. 2013
  DILI in vitro assay prediction, Persson (2013): -VE
[5]
  Structural based (HCI): -VE
[5]; Structural based (HCI), human hepatocytes, ref Xu et al. 2008
  DILI in vitro assay prediction, Xu (2008): -VE
[6]
  Ro2 Hybrid HRM Score: -VE
[6]; [24]
  Rule of Two hybrid HRM Score ≥3, Aleo (2019): -VE
  Rule of Two hybrid HRM Score ≥8, Aleo (2019): -VE
[7]; 2D PHH, ATP, IC50 threshold 100 µM, ref Proctor et al. 2017
  PHH/100uM, Proctor (2017): -VE
[7]; [25]
  PHH ATP <100uM: -VE
[8]; [25]
  hLiMTs ATP <100uM: -VE
[8]; hLiMTs, ATP, IC50 threshold 100 µM, ref Proctor et al. 2017
  hLiMTs/100uM, Proctor (2017): -VE
[9]
  hLiMTs ATP <20 x Cmax: -VE
[9]; PHH spheroids, ATP, 14 days, IC20 < 20 × Cmax.tot, ref Vorrink et al. 2018
  DILI in vitro assay prediction, Vorrink (2018): -VE
[10]; Bayesian modeling, ref Williams et al. 2019
  Bayesian Machine Learning DILI prediction, Williams (2019): -VE
[10]; In vitro Assay, ref Williams 2019
  Bayesian Machine Learning: -VE
[11]; Chen et al. 2016 or literature alignment, ref Chen et al. 2016
  Assigned DILI category: 1
[11]; […]
  In vivo DILI: -VE
[11]; ref Albrecht 2019
  In vivo DILI: -VE
[11]; ref Dawson 2012
  In vivo DILI: -VE
[11]; ref Garside 2014
  In vivo DILI: -VE
[11]; ref Gustafsson 2014
  In vivo DILI: -VE
[11]; ref Khetani 2012
  In vivo DILI: -VE
[11]; ref O'Brien 2006
  In vivo DILI: -VE
[11]; ref Persson 2013
  In vivo DILI: -VE
[11]; ref Proctor 2017
  In vivo DILI: -VE
[11]; ref Schadt 2015
  In vivo DILI: -VE
[11]; ref Vorrink 2018
  In vivo DILI: -VE
[11]; ref Williams 2019
  In vivo DILI: -VE
[11]; ref Xu 2008
  In vivo DILI: -VE
[12]
  Cytotoxicity PHH 48 hrs: -VE
[13]
  HMPCC's: -VE
[14]
  Cluster 1-6 +VE Assay: +VE
[15]
  DILI Score (FDA) (1-8): 3
[16]
  Inhibition of rBsep cutoff<1& cmax u>.2: -VE
  Inhibition of rBsep cutoff<3: -VE
[17]
  RMPCC's: -VE
[18]; Homo sapiens, read-out: ATP endpoint AC50
  AC50: 5.15 µM
[18]; Homo sapiens, read-out: ATP endpoint MEC
  minimal effective concentration: 3.12 µM
[18]; [26]
  DILI prediction hLiMTs (HCS-MEC): -VE
[18]; hLiMTs, ATP endpoint, cut-off <25x Avg Cmax
  hLiMTs <25x Avg Cmax ATP: -ve
[18]; hLiMTs, ATP endpoint, cut-off <100x Avg Cmaxu
  hLiMTs <100x Avg Cmaxu ATP: -ve
[18]; hLiMTs, HCS endpoints, cut-off <25x Avg Cmax
  hLiMTs <25x Avg Cmax HCS: -ve
[18]; hLiMTs, HCS endpoints, cut-off <100x Avg Cmaxu
  hLiMTs <100x Avg Cmaxu HCS: -ve
[18]; hLiMTs, all endpoints (ATP and HCS), cut-off <25x Avg Cmax
  hLiMTs <25x Avg Cmax All: -ve
[18]; hLiMTs, all endpoints, Cmax max used
  hLiMTs Cmax max All: -ve
[18]; hLiMTs, all endpoints, Cmax min used
  hLiMTs Cmax min All: -ve
[18]; hLiMTs, all endpoints, cut-off <10 uM
  hLiMTs <10 uM All: +ve (<10 uM)
[18]; hLiMTs, all endpoints, cut-off <100x Avg Cmaxu
  hLiMTs <100x Avg Cmaxu All: -ve
[19]; HepaRG, ATP endpoint, cut-off <25x Avg Cmax
  HepaRG <25x Avg Cmax ATP: -ve
[19]; HepaRG, ATP endpoint, cut-off <100x Avg Cmaxu
  HepaRG <100x Avg Cmaxu ATP: -ve
[19]; HepaRG, HCS endpoints, cut-off <25x Avg Cmax
  HepaRG <25x Avg Cmax HCS: -ve
[19]; HepaRG, HCS endpoints, cut-off <100x Avg Cmaxu
  HepaRG <100x Avg Cmaxu HCS: -ve
[19]; HepaRG, all endpoints (ATP and HCS), cut-off <25x Avg Cmax
  HepaRG <25x Avg Cmax All: -ve
[19]; HepaRG, all endpoints, Cmax max used
  HepaRG Cmax max All: -ve
[19]; HepaRG, all endpoints, Cmax min used
  HepaRG Cmax min All: -ve
[19]; HepaRG, all endpoints, cut-off <10 uM
  HepaRG <10 uM All: -ve
[19]; HepaRG, all endpoints, cut-off <100x Avg Cmaxu
  HepaRG <100x Avg Cmaxu All: -ve
[19]; [26]
  DILI prediction HepaRG spheroids (HCS-MEC): -VE

## COc1ccc(Cl)cc1C(=O)NCCc1ccc(S(=O)(=O)NC(=O)NC2CCCCC2)cc1 [glibenclamide]
[20]
  Inhibition of rBsep cutoff<1& cmax u>.2: +VE
  Inhibition of rBsep cutoff<3: +VE
[14]
  Cluster 1-6 +VE Assay: +VE

## CC(C)NCC(O)c1ccc(O)c(O)c1 (centres unmarked) [isoproterenol]
[2]; ref Chen 2016
  DILI +VE (5-8), DILI -VE (-4): -VE
  DILI severity category: vNo-DILI-Concern
[3]
  Structural based (HCI): -VE
[4]
  Cluser analysis: -VE
  Structural based (HCI): -VE
[5]
  Structural based (HCI): -VE
[6]
  Partition Hybrid HRM Score: -VE
  Ro2 Hybrid HRM Score: -VE
[9]
  hLiMTs ATP <20 x Cmax: -VE
[11]; ref Aleo 2019
  In vivo DILI: -VE
[11]; ref Dawson 2012
  In vivo DILI: -VE
[11]; ref Garside 2014
  In vivo DILI: -VE
[11]; ref Gustafsson 2014
  In vivo DILI: -VE
[11]; ref O'Brien 2006
  In vivo DILI: -VE
[11]; ref Persson 2013
  In vivo DILI: -VE
[11]; ref Tolosa 2019
  In vivo DILI: -VE
[11]; ref Vorrink 2018
  In vivo DILI: -VE
[11]; ref Xu 2008
  In vivo DILI: -VE
[21]
  THLE-Null: -VE
  THLE-Null/3A4: -VE
[14]
  Cluster 1-6 +VE Assay: +VE
[22]
  Upcytes multi donor assay 14day data: -VE
[16]
  Inhibition of rBsep cutoff<1& cmax u>.2: -VE
  Inhibition of rBsep cutoff<3: -VE

## COc1ccc(C(=O)NCc2cccnc2)cc1C(=O)NCc1cccnc1 [picotamide]
[20]
  Inhibition of rBsep cutoff<1& cmax u>.2: -VE
  Inhibition of rBsep cutoff<3: -VE
[3]
  Structural based (HCI): +VE (lowest HCI endpoint IC50 (or in the absence of dose–response < 100 µM) < 30 × total human plasma exposure levels (Cmax.tot))
[11]; ref Dawson 2012
  In vivo DILI: -VE
[11]; ref Gustafsson 2014
  In vivo DILI: -VE
[11]; ref O'Brien 2006
  In vivo DILI: -VE

## CC(C)(S)[C@@H](N)C(=O)O [d-penicillamine]
[20]
  Inhibition of rBsep cutoff<1& cmax u>.2: -VE
  Inhibition of rBsep cutoff<3: -VE
[11]; ref Dawson 2012
  In vivo DILI: +VE
[11]; ref Gustafsson 2014
  In vivo DILI: +VE
[11]; ref Porceddu 2012
  In vivo DILI: +VE
[21]
  THLE-Null: -VE
  THLE-Null/3A4: -VE
[23]
  in vitro data EC2<=1x Cmax: +VE
  in vitro data EC20<=2uM: -VE

## CCC(=O)O[C@H]1[C@H](O[C@@H]2[C@@H](C)[C@H](O[C@H]3C[C@@](C)(OC)[C@@H](O)[C@H](C)O3)[C@@H](C)C(=O)O[C@H](CC)[C@@](C)(O)[C@H](O)[C@@H](C)C(=O)[C@H](C)C[C@@]2(C)O)O[C@H](C)C[C@@H]1N(C)C [erythromycin estolate]
[20]
  Inhibition of rBsep cutoff<1& cmax u>.2: +VE
  Inhibition of rBsep cutoff<3: +VE
[5]
  Structural based (HCI): +VE
[6]
  Partition Hybrid HRM Score: +VE
  Ro2 Hybrid HRM Score: +VE
[11]; ref Aleo 2019
  In vivo DILI: +VE
[11]; ref Dawson 2012
  In vivo DILI: +VE
[11]; ref Xu 2008
  In vivo DILI: +VE

## CCC(=O)O[C@]1(C(=O)CCl)[C@@H](C)C[C@H]2[C@@H]3CCC4=CC(=O)C=C[C@]4(C)[C@@]3(F)[C@@H](O)C[C@@]21C [clobetasol propionate]
[20]
  Inhibition of rBsep cutoff<1& cmax u>.2: -VE
  Inhibition of rBsep cutoff<3: +VE
[11]; ref Dawson 2012
  In vivo DILI: -VE
[11]; ref Garside 2014
  In vivo DILI: -VE
[11]; ref Gustafsson 2014
  In vivo DILI: -VE
[21]
  THLE-Null: -VE
  THLE-Null/3A4: -VE
[14]
  Cluster 1-6 +VE Assay: -VE

## Cc1onc(-c2ccccc2Cl)c1C(=O)N[C@@H]1C(=O)N2[C@@H]1SC(C)(C)[C@@H]2C(=O)O [cloxacillin]
[20]
  Inhibition of rBsep cutoff<1& cmax u>.2: -VE
  Inhibition of rBsep cutoff<3: -VE

## Cc1onc(-c2c(Cl)cccc2Cl)c1C(=O)N[C@@H]1C(=O)N2[C@@H]1SC(C)(C)[C@@H]2C(=O)O [dicloxacillin]
[20]
  Inhibition of rBsep cutoff<1& cmax u>.2: -VE
  Inhibition of rBsep cutoff<3: +VE
[2]; ref Chen 2016
  DILI +VE (5-8), DILI -VE (-4): +VE
  DILI severity category: vLess-DILI-Concern
[11]; ref Dawson 2012
  In vivo DILI: +VE
[11]; ref Garside 2014
  In vivo DILI: +VE
[11]; ref Gustafsson 2014
  In vivo DILI: +VE
[21]
  THLE-Null: -VE
  THLE-Null/3A4: -VE
[14]
  Cluster 1-6 +VE Assay: +VE

Source: article PMC7395068, “The evolution of strategies to minimise the risk of human drug-induced liver injury (DILI) in drug discovery and development” (Archives of Toxicology, 2020)
